The subject of the assay is P388 leukemia ip, CD2F1 mice, survival T/C. The experiment in a line: NCI In Vivo Anticancer Drug Screen. Data for tumor model P388 Leukemia (intraperitoneal) in CD2F1 (CDF1) mice. To be noted: endpoint: median survival time, higher = longer survival. The method, boiled down:
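Mice carrying the transplanted tumor received test compound or vehicle. Survival was recorded in each group, and the value is the treated-group measurement divided by that of the vehicle-treated control group.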

Setting [1] is: dose: 50.0 mg/kg/injection, schedule: Q01DX005 (ip), vehicle: saline with Tween-80.
The mark [2] stands for this setting: dose: 100.0 mg/kg/injection, schedule: Q01DX005 (ip), vehicle: saline with Tween-80.
The mark [3] stands for this setting: dose: 200.0 mg/kg/injection, schedule: Q01DX005 (ip), vehicle: saline with Tween-80.
Where [4] appears, read: dose: 50.0 mg/kg/injection, schedule: Q01DX005 (ip), vehicle: saline.
Where [5] appears, read: dose: 100.0 mg/kg/injection, schedule: Q01DX005 (ip), vehicle: saline.
Where [6] appears, read: dose: 50.0 mg/kg/injection, schedule: Q01DX005 (ip), vehicle: Klucel (hydroxypropylcellulose) (HPC).
Where [7] appears, read: dose: 50.0 mg/kg/injection, schedule: Q01DX009 (ip), vehicle: saline with Tween-80.
The mark [8] stands for this setting: dose: 100.0 mg/kg/injection, schedule: Q01DX009 (ip), vehicle: saline with Tween-80.

Several values for one entry are separate records, joined by “and”; a condition that tells them apart may be missing. Equal values may be shown once. Toxic doses and inconclusive results are not listed.

In the case of `CC1CC=C2C=C(Cl)C=CC2(C)C1C` (stereo not drawn), the T/C runs as follows: under setting [1], 98 % of control; under setting [2], 96 % of control; under setting [3], 91 % of control.

As for `O=S(=O)(O)O`, the T/C is 108 % of control (dose: 30.0 mg/kg/injection, schedule: Q01DX009 (ip), vehicle: water) and 86 % of control (dose: 100.0 mg/kg/injection, schedule: Q01DX009 (ip), vehicle: water).

For `CCc1ccc(C(=O)N/N=C(\C)[C@]2(O)Cc3c(O)c4c(c(O)c3[C@@H](OC3CC(N)C(O)C(C)O3)C2)C(=O)c2c(OC)cccc2C4=O)cc1` (stereo partly drawn), the T/C runs as follows: (dose: 0.12 mg/kg/injection, schedule: Q01DX009 (ip), vehicle: water) 111 % of control; (dose: 1.0 mg/kg/injection, schedule: Q01DX009 (ip), vehicle: water) 154 % of control and 163 % of control; (dose: 2.0 mg/kg/injection, schedule: Q01DX009 (ip), vehicle: water) 160 % of control and 175 % of control; (dose: 4.0 mg/kg/injection, schedule: Q01DX009 (ip), vehicle: water) 151 % of control and 175 % of control; (dose: 8.0 mg/kg/injection, schedule: Q01DX009 (ip), vehicle: water) 86 % of control and 93 % of control.

For the compound `O=C1NC(O)c2cc([N+](=O)[O-])ccc2O1` (stereo not drawn), the T/C is 100 % of control and 107 % of control under setting [1]; 102 % of control and 115 % of control under setting [2]; 100 % of control and 120 % of control under setting [3].

Regarding `C=CCSc1nc2ccc(N=Cc3ccc([N+](=O)[O-])cc3)cc2s1`, the T/C reads like this: (dose: 6.25 mg/kg/injection, schedule: Q01DX009 (ip), vehicle: Klucel (hydroxypropylcellulose) (HPC)) 99 % of control; (dose: 12.5 mg/kg/injection, schedule: Q01DX009 (ip), vehicle: Klucel (hydroxypropylcellulose) (HPC)) 98 % of control; (dose: 25.0 mg/kg/injection, schedule: Q01DX009 (ip), vehicle: Klucel (hydroxypropylcellulose) (HPC)) 105 % of control.

Consider `CCN(CC)CCN1C(=O)c2cccc(N)c2C1=O`, for which the T/C is, setting by setting: under setting [4], 103 % of control; under setting [5], 101 % of control.

Regarding `O=COCC1(c2ccncc2)OCCO1`, the T/C reads like this: under setting [4], 108 % of control; under setting [5], 107 % of control; (dose: 200.0 mg/kg/injection, schedule: Q01DX005 (ip), vehicle: saline) 99 % of control.

Turning to `O=S1C2CCC(Cl)C1CCC2Cl` (stereo not drawn), the T/C is 112 % of control (dose: 0.78 mg/kg/injection, schedule: Q01DX009 (ip), vehicle: Klucel (hydroxypropylcellulose) (HPC)) and 90 % of control (dose: 1.56 mg/kg/injection, schedule: Q01DX009 (ip), vehicle: Klucel (hydroxypropylcellulose) (HPC)).

For `O=C1c2ccccc2C(=O)c2c(NCCN3CCCCC3)ccc(NCCN3CCCCC3)c21`, the T/C by setting is: (dose: 4.0 mg/kg/injection, schedule: Q01DX009 (ip), vehicle: acid diluted with saline) 102 % of control; (dose: 8.0 mg/kg/injection, schedule: Q01DX009 (ip), vehicle: acid diluted with saline) 100 % of control; (dose: 12.5 mg/kg/injection, schedule: Q01DX009 (ip), vehicle: other) 98 % of control; (dose: 16.0 mg/kg/injection, schedule: Q01DX009 (ip), vehicle: acid diluted with saline) 103 % of control; (dose: 25.0 mg/kg/injection, schedule: Q01DX009 (ip), vehicle: other) 104 % of control; (dose: 32.0 mg/kg/injection, schedule: Q01DX009 (ip), vehicle: acid diluted with saline) 101 % of control. In addition, the T/C reads like this: (dose: 50.0 mg/kg/injection, schedule: Q01DX009 (ip), vehicle: other) 104 % of control; (dose: 64.0 mg/kg/injection, schedule: Q01DX009 (ip), vehicle: acid diluted with saline) 104 % of control; (dose: 100.0 mg/kg/injection, schedule: Q01DX009 (ip), vehicle: other) 121 % of control.

As to `OC(Cc1ccnc2ccccc12)C(Cl)(Cl)Cl` (stereo not drawn), the T/C is, setting by setting: (dose: 200.0 mg/kg/injection, schedule: Q04DX003 (ip), vehicle: saline with Tween-80) 104 % of control; (dose: 400.0 mg/kg/injection, schedule: Q04DX003 (ip), vehicle: saline with Tween-80) 90 % of control.

Turning to `CCCCOc1ccc2nccc(N/N=C/c3ccc(OC)c4ccccc34)c2c1`, the T/C (dose: 12.5 mg/kg/injection, schedule: Q01DX005 (ip), vehicle: Klucel (hydroxypropylcellulose) (HPC)) was 88 % of control; the T/C (dose: 25.0 mg/kg/injection, schedule: Q01DX005 (ip), vehicle: Klucel (hydroxypropylcellulose) (HPC)) was 88 % of control; the T/C under setting [6] is 92 % of control and 94 % of control.

`CCCCCCCCCCCCSC(SCCCCCCCCCCCC)SCCCCCCCCCCCC`: the T/C (dose: 12.5 mg/kg/injection, schedule: Q01DX009 (ip), vehicle: saline with Tween-80) was 97 % of control; the T/C (dose: 25.0 mg/kg/injection, schedule: Q01DX009 (ip), vehicle: saline with Tween-80) is 92 % of control; the T/C under setting [7] is 99 % of control; the T/C under setting [8] is 106 % of control.

As to `O=C1CC(=O)N2C(=O)CC(=O)N12`, the T/C runs as follows: (dose: 60.0 mg/kg/injection, schedule: Q01DX005 (ip), vehicle: saline with Tween-80) 99 % of control; (dose: 120.0 mg/kg/injection, schedule: Q01DX005 (ip), vehicle: saline with Tween-80) 103 % of control; (dose: 240.0 mg/kg/injection, schedule: Q01DX005 (ip), vehicle: saline with Tween-80) 97 % of control.

Take `Cn1ncc2c(Cl)ncnc21`: the T/C by setting is: (dose: 50.0 mg/kg/injection, schedule: Q01DX009 (ip), vehicle: Klucel (hydroxypropylcellulose) (HPC)) 91 % of control; (dose: 100.0 mg/kg/injection, schedule: Q01DX009 (ip), vehicle: Klucel (hydroxypropylcellulose) (HPC)) 93 % of control; (dose: 200.0 mg/kg/injection, schedule: Q01DX009 (ip), vehicle: Klucel (hydroxypropylcellulose) (HPC)) 107 % of control.

Regarding `Brc1ccc(C[N+]23CN4CN(CN(C4)C2)C3)cc1`, the T/C under setting [7] was 100 % of control; the T/C under setting [8] was 120 % of control; the T/C (dose: 100.0 mg/kg/injection, schedule: Q04DX003 (ip), vehicle: saline) is 110 % of control; the T/C (dose: 200.0 mg/kg/injection, schedule: Q04DX003 (ip), vehicle: saline) was 110 % of control.

Regarding `COC(=O)CC12CC3(C)CC(C)(C1)CC(CC(=O)OC)(C3)C2`, the T/C was 99 % of control under setting [7]; 99 % of control and 108 % of control under setting [8]; 103 % of control and 113 % of control (dose: 200.0 mg/kg/injection, schedule: Q01DX009 (ip), vehicle: saline with Tween-80).

Regarding `CC1CCC(C(C)C)C([c-]2[c-][c-][c-][c-]2)C1.CC1CCC(C(C)C)C([c-]2[c-][c-][c-][c-]2)C1.[Cl][Zr][Cl]` (stereo not drawn), the T/C reads like this: (dose: 6.25 mg/kg/injection, schedule: Q01DX001 (ip), vehicle: Klucel (hydroxypropylcellulose) (HPC)) 110 % of control; (dose: 12.5 mg/kg/injection, schedule: Q01DX001 (ip), vehicle: Klucel (hydroxypropylcellulose) (HPC)) 100 % of control; (dose: 25.0 mg/kg/injection, schedule: Q01DX001 (ip), vehicle: Klucel (hydroxypropylcellulose) (HPC)) 103 % of control.

For `O=C(Cc1nc2ccccc2[nH]1)N/N=C1\SCC(=O)N1c1ccc(Cl)cc1`, the T/C was 103 % of control under setting [6]; 108 % of control (dose: 100.0 mg/kg/injection, schedule: Q01DX005 (ip), vehicle: Klucel (hydroxypropylcellulose) (HPC)); 104 % of control (dose: 200.0 mg/kg/injection, schedule: Q01DX005 (ip), vehicle: Klucel (hydroxypropylcellulose) (HPC)).

On to `CCOC(=O)CC/C(=C/c1cccc(OC)c1)[N+](=O)[O-]`, for which the T/C runs as follows: (dose: 50.0 mg/kg/injection, schedule: Q01DX001 (ip), vehicle: Klucel (hydroxypropylcellulose) (HPC)) 105 % of control; (dose: 100.0 mg/kg/injection, schedule: Q01DX001 (ip), vehicle: Klucel (hydroxypropylcellulose) (HPC)) 107 % of control; (dose: 200.0 mg/kg/injection, schedule: Q01DX001 (ip), vehicle: Klucel (hydroxypropylcellulose) (HPC)) 107 % of control.

As for `COc1cc(CC2c3cc(OC)c(OC)cc3CC[N+]2(C)C)c(Oc2cc(CC3c4cc(OC)c(OC)cc4CC[N+]3(C)C)ccc2OC)cc1OC` (stereo not drawn), the T/C runs as follows: (dose: 1.56 mg/kg/injection, schedule: Q04DX003 (ip), vehicle: water) 109 % of control; (dose: 3.13 mg/kg/injection, schedule: Q04DX003 (ip), vehicle: water) 103 % of control.

In the case of `C=CCC(NC(=O)CC)C(=O)O` (stereo not drawn), the T/C by setting is: (dose: 50.0 mg/kg/injection, schedule: Q01DX009 (ip), vehicle: saline) 92 % of control; (dose: 100.0 mg/kg/injection, schedule: Q01DX009 (ip), vehicle: saline) 92 % of control; (dose: 200.0 mg/kg/injection, schedule: Q01DX009 (ip), vehicle: saline) 103 % of control.

(Values after PubChem BioAssay AID330 (DTP/NCI, 2004).)
